{"source": "paper PMC12084349", "about": "(Communications Biology, 2025)", "key": {"Hsp90-NTD": {"target": "Hsp90-NTD (Homo sapiens, UniProt P07900)", "experiment": "[1H, […]] HSQC NMR titration", "format": "binding"}, "Aha1": {"target": "Aha1 (Homo sapiens, UniProt O95433)", "sequence (O95433 204-338)": "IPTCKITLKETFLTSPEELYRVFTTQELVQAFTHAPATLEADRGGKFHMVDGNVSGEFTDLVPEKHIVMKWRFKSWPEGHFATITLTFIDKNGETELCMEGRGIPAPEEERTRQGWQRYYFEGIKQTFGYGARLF", "experiment": "ITC", "format": "binding"}}}
{"smiles": "CCc1oc2ccccc2c1C(=O)c1cc(Br)c(O)c(Br)c1", "note": "[Benzbromarone]", "values": [{"measurement": "Kd", "setting": "Hsp90-NTD", "value": "15.1 ± 3.86", "unit": "µM"}, {"measurement": "Kd", "setting": "Aha1", "value": "0.84 ± 0.35", "unit": "µM"}]}
